Assay results reported in patent publication US20260137706A1, “METHODS OF TREATING INFLAMMATORY DISEASES” (INTERLINE THERAPEUTICS, INC., priority 2023, published 2026).

Experiments:
[1] = biological target: T1, GST-RIPK2 fusion protein (human RIPK2, amino acids 1-310) (Homo sapiens, UniProt O43353); experiment: RIPK2 binding competition assay (TR-FRET, Tracer 199 displacement); conditions: 10 nM Tracer 199, 1 nM GST-RIPK2, read-out: RIPK2 IC50
T1 construct: made in house; host or cells: baculovirus infected Sf9 cells
Source text: The ability of selected compounds of Formula (I) to inhibit the binding of an Alexa647-labelled ATP-competitive kinase inhibitor to a GST-RIPK2 fusion protein was quantified employing the TR-FRET-based RIPK2 binding competition assay as described in the following paragraphs.
Recombinant fusion protein of N-terminal Glutathione-S-Transferase (GST) and a fragment of human RIPK2 (amino acids 1-310 of accession number 043353), expressed in baculovirus infected Sf9 cells, purified via glutathione affinity chromatography, was used as GST-RIPK2 fusion protein. Tracer 199 from Life Technologies (catalogue no. PR9115B) was used as Alexa647-labelled ATP-competitive kinase inhibitor.
For the assay, 50 nL of a 100-fold concentrated solution of each test compound in DMSO was pipetted into either a black low volume 384-well microtiter plate or a black 1536-well microtiter plate (both Greiner Bio-One, Frickenhausen, Germany), 3 μL solution of Tracer 199 (16.7 nM=>final concentration in 5 μL assay volume is 10 nM) in aqueous assay buffer (25 mM Tris/HCl pH 7.5, 10 mM magnesium chloride (MgCl2), 5 mM β-glycerophosphate, 2.5 mM dithiothreitol (DTT), 0.5 mM ethylene glycol-bis(2-aminoethylether)-N,N,N′,N′-tetraacetic acid (EGTA), 0.5 mM sodium ortho-vanadate, 0.01% (w/v) bovine serum albumin (BSA), 0.005% (w/v) Pluronic F-127 (Sigma)) were added. Then the binding competition was started by the addition of 2 μL of a solution of the GST-RIPK2 fusion protein (2.5 nM=>final conc. in the 5 μL assay volume is 1 nM) and of Anti-GST-Tb (1.25 nM=>final conc. in the 5 μL assay volume is 0.5 nM), a Lumi4®—Tb cryptate-conjugated anti-GST antibody from PerkinElmer (catalogue no 61GSTTAH), in assay buffer.
The resulting mixture was incubated 45 min at 22° C. to allow the formation of a complex between the Tracer 199, the fusion protein and Anti-GST-Tb. Subsequently, the amount of this complex was evaluated by measurement of the resonance energy transfer from the Tb-cryptate to the Tracer 199. Therefore, the fluorescence emissions at 620 nm and 665 nm after excitation at 337 nm were measured in a TR-FRET reader, e.g. a Pherastar FS (BMG Labtechnologies, Offenburg, Germany) or a Viewlux (PerkinElmer). The ratio of the emissions at 665 nm and at 620 nm was taken as the measure of the amount of the complex. The data were normalized (assay reaction without inhibitor=0% activity, all other assay components but no GST-RIPK2 fusion protein=−100% activity).
Table A1 below lists IC50 values of selected compounds of Formula (I) measured in the RIPK2 binding competition assay.

[2] = biological target: T2, binding of His-XIAP(BIR2)-avi fusion protein to GST-RIPK2 fusion protein (RIPK2/XIAP) (Homo sapiens, UniProt O43353); experiment: RIPK2-XIAP binding competition PPI assay (TR-FRET); conditions: RIPK2/XIAP binding competition PPI assay; for Emax: Amax, read-out: PPI Amax bin; for IC50: read-out: PPI IC50 bin
T2 construct: made in house; host or cells: baculovirus infected Sf9 cells
Outline: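 Compounds (in DMSO, 100-fold stock) incubated 120 min at 23 °C with 1 nM GST-RIPK2 (aa 1-310) and 25 nM His-XIAP(BIR2 aa 152-231)-avi, plus anti-His-XL665 and anti-GST-Tb, in pH 7.5 Tris buffer. Read-out: 665/520 nm emission ratio. Normalized to no-inhibitor (0%) and 50 nM GSK583 (−100%); Amax binned A–D.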

[3] = tested on: NF-κB pathway (SEAP) in THP1-Dual cells; experiment: THP-1 Dual cell SEAP assay (L18-MDP stimulated); assay type: cell-based; conditions: Homo sapiens, THP1-Dual, read-out: NF-κB THP1 IC50 bin
Outline: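 IC50 values derive from non-linear regression of % inhibition, calculated against DMSO/L18-MDP-treated wells after media-only subtraction. NF-κB SEAP activity was read at OD 620-655 nm (QUANTI-Blue, 2 h, 37 °C) from supernatants of THP1-Dual cells. Cells had been compound-treated 30 min before overnight (20-24 h) stimulation with 10 ng/mL final L18-MDP.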

T2 sequence (O43353 1-310 limits assumed): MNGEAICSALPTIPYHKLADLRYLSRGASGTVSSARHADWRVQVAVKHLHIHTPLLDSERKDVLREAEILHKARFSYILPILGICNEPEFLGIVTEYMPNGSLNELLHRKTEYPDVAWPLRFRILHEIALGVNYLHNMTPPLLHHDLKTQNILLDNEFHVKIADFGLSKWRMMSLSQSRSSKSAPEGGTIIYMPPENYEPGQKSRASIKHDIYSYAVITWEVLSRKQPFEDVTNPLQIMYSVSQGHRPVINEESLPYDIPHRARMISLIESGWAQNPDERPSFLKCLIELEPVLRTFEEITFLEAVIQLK
T1 sequence (O43353 1-310): as the sequence (O43353 1-310 limits assumed) above

Compound | IC50 [1] [nM] | Emax [2] [%] | IC50 [2] [nM] | IC50 [3] [nM]
COc1cc2ncc(-c3cc(F)c(OC)c(NC(=O)Cc4ccn(C)n4)c3)n2cc1S(=O)(=O)C(C)(C)C [Example 298, N-(5-(6-(tert-butylsulfonyl)-7-methoxyimidazo[1,2-a]pyridin-3-yl)-3-fluoro-2-methoxyphenyl)-2-(1-methyl-1H-pyrazol-3-yl)acetamide] | 2.5 to 20 | 55 to 80 | 2.5 to 20 | 250 to 1000
COc1ccn2ncc(-c3cc(N)cc(F)c3)c2n1 [Example 80, 3-fluoro-5-(5-methoxypyrazolo[1,5-a]pyrimidin-3-yl)aniline] | > 20 | < 30 | > 20 | > 1000
CCCS(=O)(=O)Nc1cc(-c2cnc3cc(OC)c(S(=O)(=O)C4(C)CC4)cn23)cc(OC)c1OC [Example 67, N-(2,3-dimethoxy-5-(7-methoxy-6-((1-methylcyclopropyl)sulfonyl)imidazo[1,2-a]pyridin-3-yl)phenyl)propane-1-sulfonamide] | < 1 | > 80 | < 1 | < 50
Cn1cc(-c2cc3ncc(-c4cc(F)c(N)nc4F)n3cc2S(=O)(=O)C(C)(C)C)cn1 [Example 22, 5-(6-(tert-butylsulfonyl)-7-(1-methyl-1H-pyrazol-4-yl)imidazo[1,2-a]pyridin-3-yl)-3,6-difluoropyridin-2-amine] | 2.5 to 20 | > 80 | 2.5 to 20 | 250 to 1000
CC(C)(C)S(=O)(=O)c1cn2c(-c3cc(F)c(N)nc3F)cnc2cc1OCCCO [Example 17, 3-((3-(6-amino-2,5-difluoropyridin-3-yl)-6-(tert-butylsulfonyl)imidazo[1,2-a]pyridin-7-yl)oxy)propan-1-ol] | 1 to 2.5 | > 80 | 1 to 2.5 | 50 to 250
CCS(=O)(=O)Nc1cc(-c2cnc3cc(OC)c(C(=O)N4CCOCC4)cn23)cc(F)c1OC [Example 190, N-(3-fluoro-2-methoxy-5-(7-methoxy-6-(morpholine-4-carbonyl)imidazo[1,2-a]pyridin-3-yl)phenyl) ethanesulfonamide] | > 20 | 55 to 80 | > 20 | > 1000
COc1cc2ncc(-c3cc4cc[nH]c4nc3F)n2cc1S(=O)(=O)C(C)(C)C [Example 216, 6-(tert-butylsulfonyl)-3-(6-fluoro-1H-pyrrolo[2,3-b]pyridin-5-yl)-7-methoxyimidazo[1,2-a]pyridine] | < 1 | > 80 | < 1 | < 50
COc1cc2ncc(-c3cccc(NS(=O)(=O)C4CN(C(=O)OC(C)(C)C)C4)c3)n2cc1S(=O)(=O)C(C)(C)C [Example 155, tert-butyl 3-(N-(3-(6-(tert-butylsulfonyl)-7-methoxyimidazo[1,2-a]pyridin-3-yl)phenyl)sulfamoyl)azetidine-1-carboxylate] | > 20 | > 80 | > 20 | > 1000
CCCS(=O)(=O)Nc1cc(-c2cnc3cc(OC)c(C(=O)N(C)C(C)C)cn23)cc(F)c1OC [Example 205, 3-(3-fluoro-4-methoxy-5-(propylsulfonamido)phenyl)-N-isopropyl-7-methoxy-N-methylimidazo[1,2-a]pyridine-6-carboxamide] | > 20 | 55 to 80 | > 20 | > 1000
CC(C)(C)S(=O)(=O)c1cn2c(-c3cc(F)c(N)nc3F)cnc2cc1OCC1(CO)CC1 [Example 56, (1-(((3-(6-amino-2,5-difluoropyridin-3-yl)-6-(tert-butylsulfonyl)imidazo[1,2-a]pyridin-7-yl)oxy)methyl)cyclopropyl)methanol] | 2.5 to 20 | > 80 | 2.5 to 20 | 50 to 250
CC(C)(C)S(=O)(=O)c1cn2c(-c3cc(F)c(N)nc3F)cnc2cc1OCC1(O)CC1 [Example 177, 1-(((3-(6-amino-2,5-difluoropyridin-3-yl)-6-(tert-butylsulfonyl)imidazo[1,2-a]pyridin-7-yl)oxy)methyl)cyclopropan-1-ol] | 1 to 2.5 | > 80 | 2.5 to 20 | 50 to 250
CC(C)(C)S(=O)(=O)c1cc2c(-c3cc(F)c(N)nc3F)cnn2cc1OCCO [Example 14, 2-((3-(6-amino-2,5-difluoropyridin-3-yl)-5-(tert-butylsulfonyl)pyrazolo[1,5-a]pyridin-6-yl)oxy)ethan-1-ol] | 1 to 2.5 | > 80 | 1 to 2.5 | 50 to 250
CC(C)(C)S(=O)(=O)c1cc2c(-c3cc(F)c(N)nc3F)cnn2cc1OCC(O)CO (stereo not shown) [Example 246, 3-((3-(6-amino-2,5-difluoropyridin-3-yl)-5-(tert-butylsulfonyl)pyrazolo [1,5-a]pyridin-6-yl)oxy)propane-1,2-diol] | 1 to 2.5 | > 80 | 1 to 2.5 | 50 to 250
CC(C)(C)S(=O)(=O)c1cn2c(-c3cc(F)c(N)nc3F)cnc2cc1C(=O)NCCO [Example 44, 3-(6-amino-2,5-difluoropyridin-3-yl)-6-(tert-butylsulfonyl)-N-(2-hydroxyethyl)imidazo[1,2-a]pyridine-7-carboxamide] | > 20 | > 80 | > 20 | > 1000
COc1cc2ncc(-c3cc(F)c(N)nc3F)n2cc1C1(OC)CCOCC1 [Example 76, 3,6-difluoro-5-(7-methoxy-6-(4-methoxytetrahydro-2H-pyran-4-yl)imidazo[1,2-a]pyridin-3-yl)pyridin-2-amine] | > 20 | > 80 | > 20 | > 1000
CC(C)(CO)COc1cc2ncc(-c3cc(F)c(N)nc3F)n2cc1S(=O)(=O)C(C)(C)C [Example 47, 3-((3-(6-amino-2,5-difluoropyridin-3-yl)-6-(tert-butylsulfonyl)imidazo[1,2-a]pyridin-7-yl)oxy)-2,2-dimethylpropan-1-ol] | 1 to 2.5 | > 80 | 1 to 2.5 | 50 to 250
C[C@@H](O)COc1cc2ncc(-c3cc(Cl)c(N)nc3F)n2cc1S(=O)(=O)C(C)(C)C [Example 212, (R)-1-((3-(6-amino-5-chloro-2-fluoropyridin-3-yl)-6-(tert-butylsulfonyl)imidazo [1,2-a]pyridin-7-yl)oxy)propan-2-ol] | 1 to 2.5 | > 80 | 1 to 2.5 | 50 to 250
CC(C)(C)S(=O)(=O)c1cn2c(-c3ccc4[nH]ccc4c3)cnc2cc1OCCO [Example 206, 2-((6-(tert-butylsulfonyl)-3-(1H-indol-5-yl)imidazo[1,2-a]pyridin-7-yl)oxy)ethan-1-ol] | 1 to 2.5 | 55 to 80 | < 1 | 50 to 250
CC(C)(N)COc1cc2ncc(-c3cc(Cl)c(N)nc3F)n2cc1S(=O)(=O)C(C)(C)C [Example 241, 5-(7-(2-amino-2-methylpropoxy)-6-(tert-butylsulfonyl)imidazo [1,2-a]pyridin-3-yl)-3-chloro-6-fluoropyridin-2-amine] | 2.5 to 20 | > 80 | 2.5 to 20 | 250 to 1000
